Assay results as given in patent US10668125B2, “Peptide having highly-shifted accumulation to pancreatic cancer cells and tissues, and use of said peptide” (Niigata University, priority 2015, dated 2020).
Where no end group is shown, it is not given here.

Experiments:
[1] = tested on: KYN-2 cells and normal cells originating from various tissues; experiment: Test Example 1: accumulation of peptide to other cancer cells and normal cells (fluorescence microscope); assay type: cell-based, human; details: FITC-labeled peptide 2 μM, 2 hours at 37° C., FIG. 1
Description: (§1) These were maintained by subculture in the laboratory by the inventors.
(§2) Pancreatic cancer cells and HPNE cells were cultured using a 5% FBS-containing CS-C medium kit. KYN-2 cells, HaCaT cells, NHDF cells, MMNK-1 cells, and Liver cells were cultured using 10% FBS-containing RPMI1640 medium. Kidney cells were cultured using a proliferation medium for normal human renal epithelial cells (RenaLife Comp Kit). NuLi-1 cells were cultured using BEGM medium (Bronchial Epithelial Growth Medium, Serum-free). TIME cells were cultured using EBM-2-MV Bullet kit (Endothelial Cell Basal Medium-2 Bullet kit).
(§3) Those cells were cultured for 2 hours at 37° C. Subsequently, the cells were washed three times with the medium in order to remove the peptide-containing medium. Subsequently, the uptake of the various peptides in the living cells was visually evaluated using an inverted type fluorescence microscope. Prior to the microscopic examination, the culture supernatant containing the peptides were removed, the cells were washed three times with 1×PBS (−), and then the cells were treated with trypsin. Adherent cells were detached and were immediately transferred into a fresh 96-well plate. The cells were resuspended in a fresh culture fluid, and then a microscopic examination was performed.

BxPC3 cells [2] = experiment: Test Example 1: quantitative fluorescence in BxPC3 cells relative to HPNE cells; assay type: cell-based, human; details: absorption into normal pancreatic duct epithelial cells (HPNE) designated as 1.0, 2 μM, 2 hours, FIG. 2B
Description: as §3
The graph of FIG. 2A is a graph showing the proportions of fluorescence intensities detected in various cells, the proportions being obtained by quantitatively analyzing the fluorescence detected in the various cells to which various peptides were added in Test Example 1, and determining relative values by designating the fluorescence detected in HPNE cells, which are a human immortalized normal pancreatic duct epithelial cell line, as 1.0. […]

[3] = tested on: various pancreatic cancer cells (BxPC3, PK-8, PL45, AsPC1, Panc1); experiment: Test Example 1: accumulation of peptide to pancreatic cancer cells (fluorescence microscope); assay type: cell-based, human; details: FITC-labeled peptide 2 μM, 2 hours at 37° C., FIG. 1
Description: as §1, §2, §3

PK-8 cells = experiment: Test Example 2: accumulation of peptide in tissues of mouse intraperitoneally transplanted with PK-8 cells; assay type: in vivo; details: NOD-SCID mice with PK-8 cells, i.v. 300 μg per 20 g body weight, 30 minutes after administration, FIG. 3B
Description: (§4) NOD-SCID mice (six-week-old female mice purchased from Crea-Japan, Inc.) intraperitoneally transplanted with Panc1 cells or PK-8 cells, which are human pancreatic cancer cells, in an amount of 1×10^6 cells in each animal, were produced as human pancreatic cancer cell-transplanted mice. Thirty days after the transplantation of human pancreatic cancer cells, Peptide 1 produced in Example 1 was intravenously (i.v.) injected to the mice in an amount of 300 μg with respect to 20 g of the mouse body weight. […] In FIG. 3A and FIG. 3B, the “Bright Field” refers to images taken in the bright field, and “FITC” refers to images taken in the dark field under the conditions of green fluorescence excitation at a wavelength of 488 nm.

Panc1 cells = experiment: Test Example 2: accumulation of peptide in tissues of mouse intraperitoneally transplanted with Panc1 cells; assay type: in vivo; details: NOD-SCID mice with Panc1 cells, i.v. 300 μg per 20 g body weight, 30 minutes after administration, FIG. 3A
Description: as §4

BxPC3 cells [4] = experiment: Test Example 3: accumulation of peptide in tissues of mouse with BxPC3 cells transplanted into the pancreas; assay type: in vivo
Description: NOD-SCID mice (six-week-old female mice purchased from Crea-Japan, Inc.) having BxPC3 cells, which are human pancreatic cancer cells, transplanted into the pancreas in an amount of 1×10^6 cells in each animal, were produced as human pancreatic cancer cell-transplanted mice. Thirty days after the transplantation of human pancreatic cancer cells, Peptide 4 produced in Example 1 was intravenously (i.v.) injected to the mice in an amount of 150 μg with respect to 20 g of the mouse body weight. […] In FIG. 4, the “Bright Field” refers to images taken in the bright field, and “FITC” refers to images taken in the dark field under the conditions of green fluorescence excitation at a wavelength of 488 nm. Furthermore, in FIG. 4, “brain” means the brain, “heart” means the heart, “kidney” means the kidney, “liver” means the liver, “lung” means the lung, “muscle” means the skeletal muscle, “pancreas” means the pancreas, “spleen” means the spleen, and “tumor” means a malignant tumor. “Surface” means the surface of various organs, and “transection” means a transverse section of various organs.
FIG. 5 is a graph showing the proportions of the fluorescence intensities detected in various tissues, the proportions being obtained by designating the fluorescence detected in normal pancreas as 1.0.

Sequence | fluorescence detected in KYN-2 cells and normal cells originating from various tissues [1] | absorption ratio (S/N ratio) into BxPC3 cells (BxPC3 cells [2]) | fluorescence detected in the various pancreatic cancer cells [3] | fluorescence of FITC in tumor lesions and normal organs (PK-8 cells) | fluorescence of FITC in tumor lesions and normal organs (Panc1 cells) | fluorescence of FITC in tumor lesions and normal organs (BxPC3 cells [4]; NOD-SCID mice with BxPC3 cells in pancreas, i.v. 150 μg per 20 g body weight, 30 minutes after administration, FIG. 4) | S/N ratio in the target malignant tumor (BxPC3 cells [4]; absorption into normal pancreas designated as 1.0, i.v. 150 μg per 20 g, 30 minutes, FIG. 5) | S/N ratio in the kidneys (BxPC3 cells [4]; absorption into normal pancreas designated as 1.0, i.v. 150 μg per 20 g, 30 minutes, FIG. 5, ascribed to urinary excretion, not cell uptake)
ARRYTWIRA (also: FITC label, site not given here) [Peptide 2, IVV library-derived 9-amino acid residue peptide, synthesized FITC-labeled] | fluorescence was hardly detected | about 6 times | strong fluorescence was detected | – | – | – | – | –
GYRRTTPSYWRMWLR (also: FITC label, site not given here) [Peptide 1, IVV library-derived 15-amino acid residue peptide, synthesized FITC-labeled] | fluorescence was hardly detected | about 6 times | strong fluorescence was detected | strong fluorescence of FITC was detected in the tumor and the metastatic lesions | strong fluorescence of FITC was detected in the tumor and the metastatic lesions | – | – | –
RAWRQCRWR (also: FITC label, site not given here) [Peptide 3, IVV library-derived 9-amino acid residue peptide, synthesized FITC-labeled] | fluorescence was hardly detected | – | strong fluorescence was detected | – | – | – | – | –
RRPTTWHKP (also: FITC label, site not given here) [Peptide 4, IVV library-derived 9-amino acid residue peptide, synthesized FITC-labeled] | fluorescence was hardly detected | – | strong fluorescence was detected | – | – | strong fluorescence of FITC was detected in the tumor and the kidneys | about 9 times | about 11 times
